The target of this assay is T1, CBM-GST (CBM of OsBC1L6) (Oryza sativa, UniProt Q6Z4G8).
T1 construct: gene BC1L6; wheat germ cell-free expression; 48 kDa by SDS-PAGE
T1 sequence (Q6Z4G8 31-191): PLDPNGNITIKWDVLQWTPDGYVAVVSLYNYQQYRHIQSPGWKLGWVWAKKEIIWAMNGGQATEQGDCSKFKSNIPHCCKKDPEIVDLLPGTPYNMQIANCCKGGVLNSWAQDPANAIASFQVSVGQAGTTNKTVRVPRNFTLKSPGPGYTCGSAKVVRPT
Description: surface plasmon resonance (Biacore T200). As to conditions: CBM-GST captured by anti-GST on CM5 chip; HBS-EP pH 7.4, 25°C. The assay is classed as binding. A general note: Surface plasmon resonance follows binding to a sensor surface in real time, without labels.

The term Kd denotes the constant that tells how readily two partners part at equilibrium.

Turning to `OC[C@H]1O[C@@H](O[C@H]2[C@H](O)[C@@H](O)[C@H](O[C@H]3[C@H](O)[C@@H](O)[C@H](O[C@H]4[C@H](O)[C@@H](O)[C@H](O[C@H]5[C@H](O)[C@@H](O)[C@H](O[C@H]6[C@H](O)[C@@H](O)C(O)O[C@@H]6CO)O[C@@H]5CO)O[C@@H]4CO)O[C@@H]3CO)O[C@@H]2CO)[C@H](O)[C@@H](O)[C@@H]1O` (some centres unmarked) [GGGGGG, cellohexaose], binding was put at a Kd of 852 µM.
`OC1OC[C@@H](O[C@@H]2OC[C@@H](O[C@@H]3OC[C@@H](O[C@@H]4OC[C@@H](O[C@@H]5OC[C@@H](O[C@@H]6OC[C@@H](O)[C@H](O)[C@H]6O)[C@H](O)[C@H]5O)[C@H](O)[C@H]4O)[C@H](O)[C@H]3O)[C@H](O)[C@H]2O)[C@H](O)[C@H]1O` (some centres unmarked) [XXXXXX, xylohexaose] gave a Kd of 760 µM.

Source of the values: article PMC6532911, “Oryza sativa Brittle Culm 1-like 6 modulates β-glucan levels in the endosperm cell wall” (PLoS ONE, 2019).
